The source of these data is paper PMC11865982, “Structure–Activity Relationships and Biological Insights into PSMA-617 and Its Derivatives with Modified Lipophilic Linker Regions” (ACS Omega, 2025).

For series [1] the following is noted: linker amino acid building block; source not stated; cited from earlier work.
A short description of series [2]: Stability in DMSO solution by 1H NMR. The class given is physicochemical. The note with it: several days. The protocol: Characterization of the compounds was conducted extensively by one-dimensional (1D) ^1H, ^13C, and ^15N NMR (Figures S10–S15) and two-dimensional (2D) spectra, viz. COSY, HSQC, and HMBC (Figures S16–S21). Previous assignments of analogous compounds[5] were also used to provide unequivocal assignment of the ^1H, ^13C, and ^15N signals except for the DOTA macrocyclic ring assignments which could not be effected with certitude due to dynamic effects causing severe line broadening and thereby precluding correlations in the 2D spectra pertinent to the DOTA ring. The dynamic effects arising from the slow motional averaging of the DOTA ring on the NMR time scale leading to severe broadening of the signals of the DOTA ring were alleviated for the ^13C signals by the acquisition of spectra at lower field. Indeed, not all of the signals of the DOTA ring could be observed in the case of ^15N, unequivocally assigned in the case of ^13C, or uniquely discerned in the case of ^1H. However, all other signals though were able to be fully assigned and the spectra were otherwise fully consistent with the proposed structures and for both P17 and P18 the assigned structures were confirmed in terms of proton count, carbon count, and carbon multiplicities. […]

The target in series [3] is T1, PSMA-overexpressing PC-3 PIP cell line (Homo sapiens, UniProt Q04609).
T1 construct: host or cells: PC3-PIP (subline of the human PC3 prostate cancer line)
T1 sequence (Q04609 whole entry): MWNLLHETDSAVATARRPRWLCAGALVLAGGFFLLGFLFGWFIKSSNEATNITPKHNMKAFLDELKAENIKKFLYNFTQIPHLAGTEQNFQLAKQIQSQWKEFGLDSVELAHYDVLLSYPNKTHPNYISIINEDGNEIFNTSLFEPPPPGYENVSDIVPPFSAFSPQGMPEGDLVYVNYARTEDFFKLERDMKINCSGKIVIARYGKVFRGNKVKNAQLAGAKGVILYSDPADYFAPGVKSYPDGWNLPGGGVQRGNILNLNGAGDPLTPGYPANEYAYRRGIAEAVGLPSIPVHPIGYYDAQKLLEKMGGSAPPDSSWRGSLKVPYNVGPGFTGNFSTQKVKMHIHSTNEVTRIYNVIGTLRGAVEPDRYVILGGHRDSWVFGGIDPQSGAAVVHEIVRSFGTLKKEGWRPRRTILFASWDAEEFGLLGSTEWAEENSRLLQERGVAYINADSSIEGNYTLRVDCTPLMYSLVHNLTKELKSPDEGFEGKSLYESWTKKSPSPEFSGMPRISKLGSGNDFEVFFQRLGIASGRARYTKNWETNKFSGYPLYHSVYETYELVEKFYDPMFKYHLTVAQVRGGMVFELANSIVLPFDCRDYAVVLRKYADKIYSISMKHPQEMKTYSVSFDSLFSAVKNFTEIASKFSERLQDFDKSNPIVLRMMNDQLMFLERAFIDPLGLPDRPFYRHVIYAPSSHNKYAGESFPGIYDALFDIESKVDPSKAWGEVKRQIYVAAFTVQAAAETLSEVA
In words: Competitive cell-binding affinity assay against [177Lu]Lu-PSMA-617, PC3-PIP. Conditions: competition with 0.75 nM [177Lu]Lu-PSMA-617, 45 min RT; average ± SD (n = 3). Here is the method: (§1) To validate the IC50 values determined by the in vitro enzymatic assay, the PSMA-expressing cell line LNCaP, its daughter cell line C4-2, and the PSMA-overexpressing cell line PC-3 PIP were utilized to compare the cell-binding affinities of P17 and P18 to PSMA-617. The IC50 values of P17 and P18 were assessed by competitive binding against [^177Lu]Lu-PSMA-617. […] For the transfected cell line PC-3 PIP, the IC50 values for all three compounds were determined to be approximately 10-fold higher.
(§2) Cell culture media and supplements were purchased from PAN Biotech if not stated otherwise. In vitro assays were performed using the sublines of the androgen-independent PC3 human PCa cell line, PSMA-positive (PSMA+) PC3-PIP and PSMA-negative (PSMA−) PC3-flu cells, purchased from Johns Hopkins University (Baltimore, […], USA). Both cell lines were housed in a humidified atmosphere of 5% CO2 at 37 °C and cultured in RPMI-1640 medium supplemented with 10% fetal calf serum (FCS), 1% L-glutamine (L-Gln), and puromycin (2 μg/mL). In addition, cell-binding affinity assays were also performed on PSMA + LNCaP (ATCC CRL-1740) and C4-2 (ATCC CRL-3314) cell lines. LNCaP was derived from a human lymph node metastatic lesion of PCa while C4-2 was isolated from an LNCaP-based tumor xenograft of an androgen-depleted mouse. Both cell lines were cultured as described above but in the absence of puromycin. Routine cell culture was performed twice a week at RT using phosphate-buffered saline (PBS, pH 7.4) for washing and 0.05% trypsin for cell detachment.
(§3) The binding affinities of PSMA-617, P17, and P18 were determined using a competitive assay with [^177Lu]Lu-PSMA-617. All three compounds were incubated at 12 different concentrations (0, 0.5, 1, 2.5, 5, 10, 25, 50, 100, 500, 1,000, and 5000 nM) with 0.75 nM [^177Lu]Lu-PSMA-617 on either PSMA + cell lines PC3-PIP, LNCaP, or C4-2 or the PSMA– cell line PC3-flu plated at a concentration of 10^6 cells/well. After 45 min incubation at RT, the radioligand was removed and cells washed twice with 100 μL and once with 200 μL ice-cold PBS. […]

The target of series [4] is T2, PSMA-positive C4-2 cell line (Homo sapiens, UniProt Q04609).
T2 construct: native LNCaP and LNCaP-derived C4-2 cell lines; host or cells: C4-2
T2 sequence (Q04609 whole entry): as above
Kind of series: Competitive cell-binding affinity assay against [177Lu]Lu-PSMA-617, C4-2. The note with it: competition with 0.75 nM [177Lu]Lu-PSMA-617, 45 min RT; average ± SD (n = 3). Here is the method:
as §1, §2, §3

A further series concerns the target T3, recombinant human PSMA (Homo sapiens, UniProt Q04609).
T3 construct: extracellular part of human PSMA (amino acids 44–750); made in house; host or cells: Drosophila Schneider's S2 cells (secreted into conditioned medium)
Kind of series: HPLC-based PSMA enzyme inhibition assay with fluorescein-γ-Glu-Glu substrate. The class given is biochemical. Conditions: 20 pM recombinant human PSMA, 100 nM substrate, 37 °C; average ± SD (n = 3). The protocol:
The potency of the studied inhibitors against recombinant human PSMA was determined in vitro using an HPLC-based assay with fluorescein−γ-Glu–Glu as the substrate.[11]
Expression and purification of the extracellular part of human PSMA (amino acids 44–750) were performed essentially as described previously.[27] Briefly, the N-terminally tagged PSMA fusion was overexpressed in Schneider’s S2 cells and the conditioned medium concentrated and dialyzed by tangential flow filtration (Millipore, Mosheim, France).
The inhibitory potency was determined using a fluorescence-based assay described previously.[11] Briefly, 20 pM recombinant human PSMA was preincubated with a 3-fold dilution series of inhibitors in 50 mM Tris.HCl, 150 mM NaCl, and 0.001% C12 E8 for 10 min at 37 °C. The reaction was initiated by the addition of 100 nM substrate in a total volume 50 μL. Following 15 min incubation at 37 °C, the reaction was stopped by the addition of 50 μL of 0.1% TFA in 5% ACN. Reaction mixtures were analyzed by RP-HPLC (Shimadzu, HPLC Prominence system) equipped with a Kinetex 2.6 μm XB-C18 100 Å column and a fluorescence detector (λEX/λEM = 492/516). HPLC separation was performed using a linear solvent gradient over 11 min from 20 to 50% of eluent B (0.1% (v/v) TFA in ACN) at a flow rate of 0.6 mL/min. The mobile phase A was 0.1% (v/v) TFA in water. The noninhibited reaction was assigned 100% and the reaction without enzyme present was defined as 0%. Data were fitted using a nonlinear regression algorithm (GraphPad Prism Software, version 8) to calculate IC50 values from the inhibition curves. Three independent assays were performed for each compound.

The target in series [5] is T4, PSMA-positive LNCaP cell line (Homo sapiens, UniProt Q04609).
T4 construct: native LNCaP and LNCaP-derived C4-2 cell lines; host or cells: LNCaP
T4 sequence (Q04609 whole entry): as above
Kind of series: Competitive cell-binding affinity assay against [177Lu]Lu-PSMA-617, LNCaP. Conditions: competition with 0.75 nM [177Lu]Lu-PSMA-617, 45 min RT; average ± SD (n = 3). Here is the method: as §1, §2, §3

Series [6] is described as follows: n-Octanol/PBS distribution coefficient. The class given is physicochemical. The note with it: n-octanol/PBS pH 7.4.
Another series concerns PC3-PIP cells. Kind of series: Cellular internalization assay. Type of series: cell-based, human. The note with it: 30 nM radioligand, 45 min 37 °C, average ± SD (n = 3). Here is the method: To further characterize P17 and P18, internalization assays were conducted to determine whether the structural modifications of the linker have an impact on the uptake of the inhibitor–enzyme complex into the cell, which is critical for efficient retention in vivo.
as §2
Cells (10^5 cells/well) were seeded in poly-L-lysine (PLL)-coated plates 24 h before the experiment. […] Another set of cells was treated analogically while the PSMA-inhibitor 2-(phosphonomethyl)pentane-1,5-dioic acid (2-PMPA; 100 mM, […]) was added in order to subtract the nonspecific binding. The respective radioligand was removed and cells were washed three times with 1 mL ice-cold PBS and the surface-bound radioactivity detached by incubating the cells twice with 500 μL glycine buffer (50 mM, pH 2.8) for 5 min. After washing the cells once with 1 mL ice-cold PBS, the internalized fraction was determined by subsequent cells lysis with 500 μL NaOH (0.3 M, pH 14). […] Three independent assays were performed.

The structures appear in SMILES notation.

T3 sequence (Q04609 44-750): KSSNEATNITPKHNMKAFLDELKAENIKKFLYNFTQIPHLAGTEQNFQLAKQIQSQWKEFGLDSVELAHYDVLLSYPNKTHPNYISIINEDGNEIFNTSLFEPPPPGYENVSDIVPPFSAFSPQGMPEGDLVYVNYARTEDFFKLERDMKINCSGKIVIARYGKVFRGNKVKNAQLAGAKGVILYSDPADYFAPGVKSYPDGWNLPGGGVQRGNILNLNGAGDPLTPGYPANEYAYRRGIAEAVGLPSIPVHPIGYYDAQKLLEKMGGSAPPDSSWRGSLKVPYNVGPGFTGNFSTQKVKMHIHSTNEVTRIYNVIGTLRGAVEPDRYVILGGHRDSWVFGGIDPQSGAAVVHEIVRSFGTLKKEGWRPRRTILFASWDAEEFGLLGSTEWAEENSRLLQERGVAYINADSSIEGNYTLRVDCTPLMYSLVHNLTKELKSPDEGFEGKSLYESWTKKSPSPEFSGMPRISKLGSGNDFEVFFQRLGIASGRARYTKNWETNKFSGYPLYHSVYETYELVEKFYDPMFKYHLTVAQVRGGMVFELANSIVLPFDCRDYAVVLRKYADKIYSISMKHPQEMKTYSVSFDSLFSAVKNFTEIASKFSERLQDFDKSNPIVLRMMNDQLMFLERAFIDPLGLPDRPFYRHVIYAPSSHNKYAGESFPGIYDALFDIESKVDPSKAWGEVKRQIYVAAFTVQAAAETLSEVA

In the case of `N[C@@H](Cc1ccc2ccccc2c1)C(=O)O` [2-naphthyl-L-Ala], the “log Kow” value in series [1] is given as above 3.

On to `N[C@@H](CC=Cc1ccccc1)C(=O)O` [3-styryl-L-Ala], for which the “log Kow” value in series [1] is on record as below 3.

For orientation: IC50 means the concentration at which inhibition is half-maximal. With `O=C(O)CC[C@H](NC(=O)N[C@@H](CCCCNC(=O)[C@H](C/C=C/c1ccccc1)NC(=O)[C@H]1CC[C@H](CNC(=O)CN2CCN(CC(=O)O)CCN(CC(=O)O)CCN(CC(=O)O)CC2)CC1)C(=O)O)C(=O)O` [P17], the “stability in DMSO solution” value in series [2] is “no sign of decomposition after several days”. The IC50 is 150 ± 30 nM in series [3], 15.5 ± 2.5 nM in series [4], 0.3 ± 0.04 nM at recombinant human PSMA and 12.9 ± 0.4 nM in series [5].

For `O=C(O)CC[C@H](NC(=O)N[C@@H](CCCCNC(=O)[C@H](C/C=C/c1ccccc1)NC(=O)c1ccc(CNC(=O)CN2CCN(CC(=O)O)CCN(CC(=O)O)CCN(CC(=O)O)CC2)cc1)C(=O)O)C(=O)O` [P18], in series [2], the “stability in DMSO solution” value is given as “no sign of decomposition after several days”. For the same compound, the IC50 in series [3] worked out at 111 ± 9 nM; in series [4] it was 9.5 ± 3 nM; at recombinant human PSMA it was 0.45 ± 0.09 nM; in series [5], 11.2 ± 4.8 nM.

`O=C(O)CC[C@H](NC(=O)N[C@@H](CCCCNC(=O)[C@H](Cc1ccc2ccccc2c1)NC(=O)[C@H]1CC[C@H](CNC(=O)CN2CCN(CC(=O)O)CCN(CC(=O)O)CCN(CC(=O)O)CC2)CC1)C(=O)O)C(=O)O` [PSMA-617]: the IC50 in series [3] worked out at 71 ± 8 nM; in series [4], 4.9 ± 0.9 nM; on recombinant human PSMA, 0.05 ± 0.03 nM; in series [5], 6.9 ± 2.2 nM.

For orientation: log D means the decadic logarithm of the distribution of all forms, ionised or not, between an organic phase and buffer at a given pH. A low value points to lower lipophilicity. Turning to `O=C([O-])CN1CCN(CC(=O)[O-])CCN(CC(=O)NC[C@H]2CC[C@H](C(=O)N[C@@H](C/C=C/c3ccccc3)C(=O)NCCCC[C@H](NC(=O)N[C@@H](CCC(=O)O)C(=O)O)C(=O)O)CC2)CCN(CC(=O)[O-])CC1.[177Lu+3]` [[^177Lu]Lu-P17], the “log D” value in series [6] is −3.36 ± 0.05. In the series with PC3-PIP cells, this compound registered an internalized of 8.5 ± 2.4 % AA and a total binding of 20.1 ± 9.8 % AA.

On to `O=C([O-])CN1CCN(CC(=O)[O-])CCN(CC(=O)NCc2ccc(C(=O)N[C@@H](C/C=C/c3ccccc3)C(=O)NCCCC[C@H](NC(=O)N[C@@H](CCC(=O)O)C(=O)O)C(=O)O)cc2)CCN(CC(=O)[O-])CC1.[177Lu+3]` [[^177Lu]Lu-P18], for which the “log D” value in series [6] was −3.35 ± 0.04. In the series on PC3-PIP cells, this compound displayed an internalized of 8.7 ± 2.9 % AA and a total binding of 33.7 ± 12.8 % AA.

As for `O=C([O-])CN1CCN(CC(=O)[O-])CCN(CC(=O)NC[C@H]2CC[C@H](C(=O)N[C@@H](Cc3ccc4ccccc4c3)C(=O)NCCCC[C@H](NC(=O)N[C@@H](CCC(=O)O)C(=O)O)C(=O)O)CC2)CCN(CC(=O)[O-])CC1.[177Lu+3]` [[^177Lu]Lu-PSMA-617, reference compound], in series [6], the “log D” value is −3.27 ± 0.05. In the series on PC3-PIP cells, this compound gave an internalized of 8.2 ± 2.4 % AA and a total binding of 26.8 ± 14.2 % AA.
